Key:
[1] = Vapor pressures of propellant liquids; assay type: physicochemical
Protocol: For propellant-driven pumps, it is preferred to use propellants whose pressure increases by less than about 80%, 60%, or 40% when the temperature is raised from 37° C. to 55° C. As examples, the pressure of Dupont Dymel HFC-134a (1,1,1,2-tetrafluoroethane) increases from 938 kPa (absolute) at 37° C. to 1,493 kPa (absolute) at 55° C., an increase of 59%. The pressure of Dupont Dymel HFC-227ea/P ([…]) increases from about 700 kPa (absolute) at 37° C. to 1,000 kPa (absolute) at 55° C., an increase of 42%. In order to minimize the effect of temperature fluctuations on the propellants, a number of methods can be employed. In one embodiment, an insulating material can be used to decrease the sensitivity to changes in ambient temperature by insulating the propellant and drug reservoirs with materials of low thermal conductivity. Materials such as closed cell neoprene foams, can be used in this embodiment. In another embodiment, a material with very low thermal conductivity can be utilized, such as a ceramic.

[2] = cited from earlier work; for Approximate Pressure, bars at 37° C.: vapor pressure of propellant liquid at 37° C.
[3] = in vivo; cited from earlier work
[4] = system: mouth of healthy subject; test: Salivation and swallowing during intra-oral infusion; assay type: in vivo, human
Protocol: The subject recorded the number of times that they swallowed over two five minute periods. They swallowed 10 and 11 times during these two five minute periods, equal to an average rate of 2.1 swallows per minute. By contrast, in two other 5 minute periods when the subject was not infusing the drug, they swallowed 6 times and 5 times, equal to an average rate of 1.1 swallows per minute.
During two five-minute periods the subject recorded the number of times that they swallowed during the infusion. They swallowed 6 times during each of these two five minute periods, equal to an average rate of 1.2 swallows per minute. This is consistent with the previously measured rate of 1.1 swallows per minute observed when not infusing a drug and is half the 2.1 swallows per minute rate the subject observed when infusing LDEE.

[5] = system: mouth of healthy subject; assay type: in vivo
Protocol: The infusion was made into the cheek pouch of the lower left jaw, between the gum and the cheek. The pump infused the drug for 8 hours over a total period of 9 hours and 10 minutes.
The solution was infused using a Cane CronoPAR pump. […] The drug infusion was continuous, but was stopped during lunch for a period of 70 minutes. According to the manual, the Cane CronoPAR pump infuses the drug in boluses of 22 μL. […] Lodosyn tablets (25 mg carbidopa) were taken orally twice during the infusion period, for a total dose of 50 mg carbidopa.
The solution was infused in the cheek pouch of the lower right jaw, i.e., between the gum and the cheek.
(§1) The solution was infused using a Cane CronoPAR pump.
The infusion was made into the cheek pouch of the lower right jaw, between the gum and the cheek. The pump infused the drug for 5 hours and 45 minutes over a total period of 7 hours and 30 minutes.
The solution was infused using a Cane CronoPAR pump. […] Pump delivery was stopped during lunch for 1 hour 45 minutes for lunch. According to the manual, the Cane CronoPAR pump infuses the drug in boluses of 22 μL.
The same healthy subject infused into their mouth about 0.69 g LD and 0.07 g carbidopa, in 3.0 mL of 1.2M LD aqueous suspension, of unknown pH. The infusion was made into the cheek pouch of the lower right jaw, between the gum and the cheek. The pump infused the drug for 8 hours and 10 minutes over a total period of 9 hours and 5 minutes.
as §1

Row | Structure (SMILES) | Approximate Pressure, bars at 37° C. [2] [bars] | further results
1 | FCC(F)(F)F [1,1,1,2 tetrafluoroethane] | 9.3 | increase of pressure from 37° C. to 55° C. [1]: 59%; pressure (absolute) at 37° C. [2]: 938 kPa; pressure (absolute) at 55° C. [2]: 1,493 kPa
2 | FC(C(F)(F)F)C(F)(F)F [1,1,1,2,3,3,3 heptafluoropropane] | 4.6 | increase of pressure from 37° C. to 55° C. [1]: 42%; pressure (absolute) at 37° C. [2]: about 700 kPa; pressure (absolute) at 55° C. [2]: 1,000 kPa
3 | FC(F)(F)CC(F)(F)F [1,1,1,3,3,3 hexafluoropropane] | 4.0 | 
4 | CC(F)F [1,1-difluoroethane] | 8.4 | 
5 | FCCF [1,2-difluoroethane] | 1.9 | 
6 | CCCCF [1-fluorobutane] | 1.3 | 
7 | CCCF [1-fluoropropane] | 4.1 | 
8 | CCC(C)F (stereo not drawn) [2-fluorobutane] | 1.6 | 
9 | CC(C)F [2-fluoropropane] | 5 | 
10 | CCN(CC)C(=O)/C(C#N)=C/c1cc(O)c(O)c([N+](=O)[O-])c1 [Entacapone] |  | plasma half-life [3]: 0.4 to 0.7 h
11 | C=CCC [Example 1-butene, 1-butene] | 4.2 | 
12 | CC=CC [Example 2-butene, 2-butene] | 3.2 | 
13 | CCOC(=O)[C@@H](N)Cc1ccc(O)c(O)c1 [LDEE, levodopa ethyl ester] |  | stimulation of salivation ([4]; during infusion): stimulated in the subject salivation; average rate of swallowing during infusion ([4]; two five minute periods): 2.1 swallows per minute; condition of the mouth post-infusion ([5]; 24 hours post-infusion): dead, grey, peeling skin; tooth hypersensitivity ([5]; during or after infusion, healthy subject): hypersensitivity at the gum line of one tooth; time post-infusion at which the tissue appears normal ([5]; healthy subject): 4 days; irritation or discomfort in the mouth during the infusion ([5]; infusion into cheek pouch, healthy subject): no irritation or discomfort in the mouth
14 | Cc1ccc(C(=O)c2cc(O)c(O)c([N+](=O)[O-])c2)cc1 [Tolcapone] |  | plasma half-life [3]: 2 to 3 h
15 | CCCC [butane] | 3.5 | 
16 | CCOCC [diethyl ether] | 1.1 | 
17 | CCC(C)C [isopentane] | 1.4 | 
18 | CCOC [methyl ethyl ether] | 3 | 
19 | CC(C)(C)C [neopentane] | 2.4 | 
20 | FC1(F)C(F)(F)C(F)(F)C1(F)F [octafluorocyclobutane] | 4.3 | 
21 | CCC [propane] | 12.8 | 
22 | C=CC [propene] | 15.5 | 
